Test results published in patent publication US20250026752A1, “POSITIVE ALLOSTERIC MODULATORS OF THE MUSCARINIC ACETYLCHOLINE RECEPTOR M4” (Vanderbilt University, priority 2021, published 2025).

Target: T1, human mAChR M4 (Homo sapiens, UniProt P08173)
T1 construct: expressed in transfected cells; host or cells: CHO-K1 (ATCC), stably expressing hM4 and Gqi5
T1 sequence (P08173 1-479): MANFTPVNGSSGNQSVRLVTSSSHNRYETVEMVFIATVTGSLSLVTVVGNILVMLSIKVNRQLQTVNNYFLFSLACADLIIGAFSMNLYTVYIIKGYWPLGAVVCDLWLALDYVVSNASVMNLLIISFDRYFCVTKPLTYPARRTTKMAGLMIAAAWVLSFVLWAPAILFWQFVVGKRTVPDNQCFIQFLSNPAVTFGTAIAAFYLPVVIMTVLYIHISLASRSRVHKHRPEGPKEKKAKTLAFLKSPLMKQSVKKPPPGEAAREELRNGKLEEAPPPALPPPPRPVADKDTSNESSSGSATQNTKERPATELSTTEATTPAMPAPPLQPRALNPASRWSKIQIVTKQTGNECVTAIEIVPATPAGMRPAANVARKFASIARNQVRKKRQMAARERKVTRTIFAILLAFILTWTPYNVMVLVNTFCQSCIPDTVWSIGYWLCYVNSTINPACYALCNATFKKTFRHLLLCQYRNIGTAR
Experiment: mAChR M4 cell-based functional assay: calcium flux (Fluo-4, FDSS), positive allosteric modulator activity on the EC20 acetylcholine response, hM4-Gqi5 CHO-K1 cells
Settings: for Emax at 30 µM: CHO-K1, human M4, % ACh maximum at 30 μM; for EC50: human M4, PAM activity on EC20 acetylcholine response, calcium flux, read-out: Human M4 EC50
Method: Human M4 cDNA, along with the chimeric G protein Gqi5, were transfected into Chinese hamster ovary (CHO-K1) cells purchased from the American Type Culture Collection using commercially available Lipofectamine 2000 transfection reagent (Dalby, B. et al., Methods (2004) 33(2), 95-103). hM4-Gqi5 cells were grown in Ham's F-12 medium containing 10% heat-inactivated fetal bovine serum (FBS), 20 mM […], 50 μg/mL G418 sulfate (CAS #108321-42-2), and 500 μg/mL Hygromycin B. rM4-Gqi5 cells were grown in DMEM containing 10% heat-inactivated FBS, 20 mM HEPES, 400 μg/mL G418 sulfate, and 500 μg/mL Hygromycin B.
For high throughput measurement of agonist-evoked increases in intracellular calcium, CHO-K1 cells stably expressing muscarinic receptors were plated in growth medium lacking G418 sulfate and hygromycin at 15,000 cells/20 μL/well in Greiner 384-well black-walled, tissue culture (TC)-treated, clear-bottom plates (VWR). Cells were incubated overnight at 37° C. and 5% C02. The next day, cells were washed using an ELX 405 (BioTek) with assay buffer; the final volume was then aspirated to 20 μL. Next, 20 μL of a 2.3 μM stock of Fluo-4/acetoxymethyl ester (Invitrogen, Carlsbad, CA), prepared as a 2.3 mM stock in DMSO and mixed in a 1:1 ratio with 10% (w/v) Pluronic F-127 and diluted in assay buffer, was added to the wells and the cell plates were incubated for 50 minutes at 37° C. and 5% C02. Dye was removed by washing with the ELX 405 and the final volume was aspirated to 20 μL. Compound master plates were formatted in an 11 point concentration-response curve (CRC) format (1:3 dilutions) in 100% DMSO with a starting concentration of 10 mM using a BRAVO liquid handler (Agilent). Test compound CRCs were then transferred to daughter plates (240 nL) using the Echo acoustic plate reformatter (Labcyte, Sunnyvale, CA) and then diluted into assay buffer (40 μL) to a 2× stock using a Thermo Fisher Combi (Thermo Fisher Scientific, Waltham, MA).
Calcium flux was measured using the Functional Drug Screening System (FDSS) 6000 or 7000 (Hamamatsu Corporation, Tokyo, Japan) as an increase in the fluorescent static ratio. Compounds were applied to cells (20 μL, 2×) using the automated system of the FDSS at 2-4 seconds into the protocol and the data were collected at 1 Hz. At 144 seconds, 10 μL of an EC20 concentration of the muscarinic receptor agonist acetylcholine was added (5×), followed by the addition of 12 μL of an EC80 concentration of acetylcholine at the 230 second time point (5×). Agonist activity was analyzed as a concentration-dependent increase in calcium mobilization upon compound addition. Positive allosteric modulator activity was analyzed as a concentration-dependent increase in the EC20 acetylcholine response. With the acetylcholine EC20 set as baseline, the test compound EC50 is determined as the concentration that produces an increase above baseline of 50% of the maximum increase in acetylcholine response elicted by the test compound. Antagonist activity was analyzed as a concentration-dependent decrease in the ECso acetylcholine response. Concentration-response curves were generated using a four-parameter logistical equation in XLFit curve fitting software (IDBS, Bridgewater, NJ) for Excel (Microsoft, Redmond, WA) or Prism (GraphPad Software, Inc., San Diego, CA).
Compounds were synthesized as described above. Activity (EC50 and Emax) was determined in the mAChR M4 cell-based functional assay as described above and the data are shown in Table 4. The compound numbers correspond to the compound numbers used in Examples 1-33 and Tables 1, 2, and 3.

With `Fc1ccc2nc(C(F)(F)F)nc(N3CCc4ncc(N5CCCn6nccc65)cc4C3)c2c1` [Compound 111, 4-[3-(6,7-dihydro-5H-pyrazolo[1,5-a]pyrimidin-4-yl)-7,8-dihydro-5H-1,6-naphthyridin-6-yl]-6-fluoro-2-(trifluoromethyl)quinazoline] the Emax at 30 µM was 82% and the EC50 was 400 nM.
With `COc1ccc2ncnc(N3CCc4ncc(Oc5ccc(C)cc5F)cc4C3)c2c1` [Compound 146, 4-[3-(2-fluoro-4-methyl-phenoxy)-7,8-dihydro-5H-1,6-naphthyridin-6-yl]-6-methoxy-quinazoline] the Emax at 30 µM was 40% and the EC50 was > 10000 nM.
`FC(F)(F)c1cnc2c(c1)CN(c1nc(Cl)nc3ccc(C(F)(F)F)cc13)CC2` [Compound 135, 2-chloro-6-(trifluoromethyl)-4-[3-(trifluoromethyl)-7,8-dihydro-5H-1,6-naphthyridin-6-yl]quinazoline] was tested, and the Emax at 30 µM was 91% and the EC50 was 1660 nM.
`Cc1ccc2ncnc(N3CCc4ncc(N5CCOc6ncccc65)cc4C3)c2c1` [Compound 92, 1-[6-(6-methylquinazolin-4-yl)-7,8-dihydro-5H-1,6-naphthyridin-3-yl]-2,3-dihydropyrido[2,3-b][1,4]oxazine] showed an Emax at 30 µM of 122% and an EC50 of 120 nM.
Work on `Cc1ncc(-c2cnc3c(c2)CN(c2ncnc4ccc(Cl)cc24)CC3)s1` [Compound 40, 5-[6-(6-chloroquinazolin-4-yl)-7,8-dihydro-5H-1,6-naphthyridin-3-yl]-2-methyl-thiazole] yielded an Emax at 30 µM of 79% and an EC50 of 110 nM.
Work on `Cc1nc2c(cc1N1CCOC(C)(C)C1)CN(c1ncnc3ccc(F)cc13)CC2` [Compound 219, 4-(6-(6-fluoroquinazolin-4-yl)-2-methyl-5,6,7,8-tetrahydro-1,6-naphthyridin-3-yl)-2,2-dimethylmorpholine] yielded an Emax at 30 µM of 60% and an EC50 of 1370 nM.
With `Fc1ccc2ncnc(N3CCc4ncc(Nc5cccnc5F)cc4C3)c2c1` [Compound 82, N-(2-fluoro-3-pyridyl)-6-(6-fluoroquinazolin-4-yl)-7,8-dihydro-5H-1,6-naphthyridin-3-amine] the Emax at 30 µM was 104% and the EC50 was 70 nM.
`Fc1cc2ncnc(N3CCc4ncc(N5CCCn6nc(C(F)(F)F)cc65)cc4C3)c2cc1F` [Compound 278, 6,7-difluoro-4-(3-(2-(trifluoromethyl)-6,7-dihydropyrazolo[1,5-a]pyrimidin-4(5H)-yl)-7,8-dihydro-1,6-naphthyridin-6(5H)-yl)quinazoline] showed an Emax at 30 µM of 76% and an EC50 of 410 nM.
`Cc1cc(F)ncc1-c1cnc2c(c1)CN(c1ncnc3ccc(Cl)cc13)CC2` [Compound 310, 6-chloro-4-(3-(6-fluoro-4-methylpyridin-3-yl)-7,8-dihydro-1,6-naphthyridin-6(5H)-yl)quinazoline] was tested, and the Emax at 30 µM was 86% and the EC50 was 60 nM.
`C[C@H]1CN(c2ncnc3ccc(F)cc23)Cc2cc(N3CCOCC3)cnc21` [Compound 262, (S)-4-(6-(6-fluoroquinazolin-4-yl)-8-methyl-5,6,7,8-tetrahydro-1,6-naphthyridin-3-yl)morpholine] gave an Emax at 30 µM of 73% and an EC50 of 260 nM.
In the case of `Cc1nc(N2CCc3ncc(Nc4ccnn4C)cc3C2)c2cc(Cl)ccc2n1` [Compound 108, 6-(6-chloro-2-methyl-quinazolin-4-yl)-N-(2-methylpyrazol-3-yl)-7,8-dihydro-5H-1,6-naphthyridin-3-amine], the Emax at 30 µM is reported as 102% and the EC50 is reported as 170 nM.
`Cc1ccc2nc(Nc3ccnn3C)nc(N3CCc4ncc(Nc5ccnn5C)cc4C3)c2c1` [Compound 189, 6-methyl-N-(2-methylpyrazol-3-yl)-4-[3-[(2-methylpyrazol-3-yl)amino]-7,8-dihydro-5H-1,6-naphthyridin-6-yl]quinazolin-2-amine] showed an Emax at 30 µM of 127% and an EC50 of 180 nM.
`Cc1ccc(-c2cnc3c(c2)CN(c2nc(C)nc4ccc(C(F)(F)F)cc24)CC3)cn1` [Compound 58, 2-methyl-4-[3-(6-methyl-3-pyridyl)-7,8-dihydro-5H-1,6-naphthyridin-6-yl]-6-(trifluoromethyl)quinazoline] was tested, and the Emax at 30 µM was 45% and the EC50 was 1220 nM.
`Cn1nc(C(F)(F)F)cc1-c1cnc2c(c1)CN(c1ncnc3cc(F)c(F)cc13)CC2` [Compound 271, 6,7-difluoro-4-(3-(1-methyl-3-(trifluoromethyl)-1H-pyrazol-5-yl)-7,8-dihydro-1,6-naphthyridin-6(5H)-yl)quinazoline] gave an Emax at 30 µM of 80% and an EC50 of 950 nM.
Compound `Clc1ccc2nc(Cl)nc(N3CCc4ncc(Br)cc4C3)c2c1` [Compound 149, 4-(3-bromo-7,8-dihydro-5H-1,6-naphthyridin-6-yl)-2,6-dichloro-quinazoline] has an Emax at 30 µM of 97% and an EC50 of 170 nM.
Compound `Fc1cc2ncnc(N3CCc4ncc(C(F)(F)F)cc4C3)c2cc1F` [Compound 151, 6,7-difluoro-4-[3-(trifluoromethyl)-7,8-dihydro-5H-1,6-naphthyridin-6-yl]quinazoline] has an Emax at 30 µM of 102% and an EC50 of 110 nM.
Compound `Cc1ccc(Oc2cnc3c(c2)CN(c2ncnc4ccc(Cl)cc24)CC3)c(F)c1` [Compound 145, 6-chloro-4-[3-(2-fluoro-4-methyl-phenoxy)-7,8-dihydro-5H-1,6-naphthyridin-6-yl]quinazoline] has an Emax at 30 µM of 64% and an EC50 of 4800 nM.
`COc1ccc2nc(C)nc(N3CCc4ncc(-c5cnc(F)cc5C)cc4C3)c2c1` [Compound 312, 4-(3-(6-fluoro-4-methylpyridin-3-yl)-7,8-dihydro-1,6-naphthyridin-6(5H)-yl)-6-methoxy-2-methylquinazoline] gave an Emax at 30 µM of 76% and an EC50 of 150 nM.
In the case of `COc1ccc2nc(Cl)nc(N3CCc4ncc(C(F)(F)F)cc4C3)c2c1` [Compound 166, 2-chloro-6-methoxy-4-[3-(trifluoromethyl)-7,8-dihydro-5H-1,6-naphthyridin-6-yl]quinazoline], the Emax at 30 µM is reported as 70% and the EC50 is reported as 420 nM.
Work on `Cc1nn(-c2cnc3c(c2)CN(c2ncnc4ccc(F)cc24)CC3)c2cccnc12` [Compound 218, 6-fluoro-4-(3-(3-methyl-1H-pyrazolo[4,3-b]pyridin-1-yl)-7,8-dihydro-1,6-naphthyridin-6(5H)-yl)quinazoline] yielded an Emax at 30 µM of 73% and an EC50 of 570 nM.
For `Cc1ccc(Oc2cnc3c(c2)CN(c2nc(C)nc4ccc(Cl)cc24)CC3)c(F)c1` [Compound 147, 6-chloro-4-[3-(2-fluoro-4-methyl-phenoxy)-7,8-dihydro-5H-1,6-naphthyridin-6-yl]-2-methyl-quinazoline], the Emax at 30 µM was 54% and the EC50 was 8340 nM.
`Cc1nc(N2CCc3ncc(C(F)(F)F)cc3C2)c2cc(Br)ccc2n1` [Compound 129, 6-bromo-2-methyl-4-[3-(trifluoromethyl)-7,8-dihydro-5H-1,6-naphthyridin-6-yl]quinazoline] was tested, and the Emax at 30 µM was 86% and the EC50 was 180 nM.
